Data: publication PMC12095047, “Transport of phenoxyacetic acid herbicides by PIN-FORMED auxin transporters” (Nature Plants, 2025)
Values joined by “and” are separate entries in the source; they are usually repeats but may differ in a detail not shown here. Identical values can stand only once. Like-named read-outs stand apart in the source and are kept apart here.

What was measured:
[1] = target: T1, PIN8 N223A (Arabidopsis thaliana, UniProt Q9LFP6, N223A); type: biochemical; conditions: PIN8 N223A, Michaelis–Menten fit
T1 construct: made in house
T1 sequence (Q9LFP6 whole entry N223A): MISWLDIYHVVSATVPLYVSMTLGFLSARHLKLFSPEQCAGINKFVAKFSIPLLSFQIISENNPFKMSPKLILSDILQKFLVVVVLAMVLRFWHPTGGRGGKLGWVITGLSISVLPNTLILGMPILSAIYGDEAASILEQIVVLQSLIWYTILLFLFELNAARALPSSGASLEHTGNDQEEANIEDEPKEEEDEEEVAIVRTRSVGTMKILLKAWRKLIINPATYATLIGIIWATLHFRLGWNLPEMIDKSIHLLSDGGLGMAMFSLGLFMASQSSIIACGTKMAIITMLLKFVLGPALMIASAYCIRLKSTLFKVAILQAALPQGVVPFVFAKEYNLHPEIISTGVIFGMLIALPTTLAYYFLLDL
Protocol: (§1) SSM, using a SURFE2R N1 from Nanion Technologies, was conducted as described. In brief, soy polar lipid mix (38% phosphatidyl choline, 30% phosphatidyl ethanolamine, 18% phosphatidyl inositol, 7% phosphatidic acid and 7% other soy lipids) and 1-palmitoyl-2-oleoyl-sn-glycero-3-phosphocholin were purchased from Avanti. Liposomes were prepared in Ringer solution without Ca^2+ (115 mM NaCl, 2.5 mM KCl, 1 mM NaHCO3, 10 mM HEPES pH7.4, 1 mM MgCl2) and homogenized using a Lipsofast (Avestin) with a […]. Triton X-100 was added to the liposomes to a final concentration of 1% (v/v). Protein was added to liposomes to a calculated lipid-to-protein ratio (LPR) of 10 unless stated otherwise. The detergent was removed using 400 mg ml^−1 Bio Beads (BioRad) overnight at 4 °C in a rotary shaker. Proteoliposomes were frozen in liquid nitrogen and kept at −80 °C until use. Proteoliposomes were diluted 1:5 in Ringer solution without Ca^2+, sonicated five times and then applied to the sensors by centrifugation (30 min, 3,000 g, 4 °C). Non-activating buffer was Ringer solution without Ca^2+ as described unless specified otherwise, and activating buffer contained the substrate of interest. In most instances we used a single-solution exchange experiment. In this case proteoliposomes, immobilized on the supported membrane, are kept in non-activating buffer as specified. At the beginning of the experiment the non-activating buffer is replaced with fresh identical non-activating buffer, and after 1 s, activating buffer (same buffer containing substrate) is added. After another second, the buffer is replaced with non-activating buffer again. Current response is recorded throughout the entire 3 s. For competition or inhibition, the respective compound was present in non-activating and activating solutions. Each experiment was performed on at least two individual sensors. On each sensor each measurement consists of three technical replicates where the mean is calculated. KD values were determined as described previously. Briefly, the binding current induced by 100 µM NPA was recorded in the presence of different concentrations of the substrate under investigation ranging between 0 µM and 1,000 µM present in the activating solution and the non-activating solution (Extended Data Fig. 5b). […] The maximum peak current was then plotted as a function of the concentration of the substrate under investigation and plotted against the degree of inhibition and fitted with a one-site binding model using GraphPad Prism V10.4.1 The half maximal concentration corresponds to the KD of the substrate under investigation.
The protocol for expression and purification of AtPIN8 protein (Uniprot: Q9LFP6) in lauryl maltose neopentyl glycol was described previously. All point mutants were generated using Q5 Site-Directed mutagenesis kit (New England Biolabs). The C-flat Holey Carbon grids (CF-1.2/1.3, Cu-300 mesh) were glow-discharged for 45 s at 15 mA in a GloQube Plus (Quorum). […] After 1 h of incubation on ice, the sample was centrifuged at 16,000 g for 15 min before blotting to remove precipitation. A drop of 4 µl of each sample was applied to the glow-discharged grids, blotted with a Vitrobot Mark IV (ThermoFisher Scientific) using the following settings (temperature 4 °C, 100% humidity, blot time of 4 s, blot force −1) and vitrified in liquid ethane.

[2] = target: T2, PIN8 (Arabidopsis thaliana, UniProt Q9LFP6); assay: SSM electrophysiology, KD by inhibition of the NPA binding current
T2 construct: made in house
T2 sequence (Q9LFP6 1-367): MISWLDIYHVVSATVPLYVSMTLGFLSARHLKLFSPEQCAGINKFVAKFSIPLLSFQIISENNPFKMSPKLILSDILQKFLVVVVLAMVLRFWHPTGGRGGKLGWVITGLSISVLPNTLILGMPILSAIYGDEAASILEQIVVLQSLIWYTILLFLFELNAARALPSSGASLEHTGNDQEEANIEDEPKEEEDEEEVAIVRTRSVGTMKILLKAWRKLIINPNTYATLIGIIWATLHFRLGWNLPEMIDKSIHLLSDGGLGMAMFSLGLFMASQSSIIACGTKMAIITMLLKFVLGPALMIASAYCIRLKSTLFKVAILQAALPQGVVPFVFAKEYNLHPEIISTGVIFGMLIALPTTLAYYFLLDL
Protocol: as §1

[3] = target: T3, wild-type PIN8 proteoliposomes (Arabidopsis thaliana, UniProt Q9LFP6); assay: SSM electrophysiology, peak width (FWHM) of current response at LPR10 and LPR50; type: biochemical; conditions: for Rel. FWHM (% of LPR10): replicates
T3 construct: made in house
T3 sequence (Q9LFP6 1-367): T2 sequence (Q9LFP6 1-367)
Protocol: as §1

[4] = target: T4, A. thaliana PIN8 (Arabidopsis thaliana, UniProt Q9LFP6); assay: SSM electrophysiology, peak current response on PIN8 proteoliposomes; type: biochemical; conditions: 100 μM 2,4-D, 20 µM NPA
T4 construct: made in house
T4 sequence (Q9LFP6 1-367): T2 sequence (Q9LFP6 1-367)
Protocol: as §1

[5] = 20 µM substrate, 100 µM NPA, individual sensors, read-out: Rel. Inhibition of NPA peak currents
[6] = 50 µM substrate, 100 µM NPA, individual sensors, read-out: Rel. Inhibition of NPA peak currents
[7] = 100 µM substrate, 100 µM NPA, individual sensors, read-out: Rel. Inhibition of NPA peak currents
[8] = 500 µM substrate, 100 µM NPA, individual sensors, read-out: Rel. Inhibition of NPA peak currents
[9] = 1000 µM substrate, 100 µM NPA, individual sensors, read-out: Rel. Inhibition of NPA peak currents
[10] = sheet F2A (Fig. 2a, KD of substrate binding), individual sensors, read-out: Peak current
[11] = 250 µM substrate, 100 µM NPA, individual sensors, read-out: Rel. Inhibition of NPA peak currents
[12] = Peak current, sheet F2A (Fig. 2a, KD of substrate binding), individual sensors
[13] = read-out: Rel. Inhibition of NPA peak currents, 50 µM substrate, 100 µM NPA, individual sensors
[14] = read-out: Rel. Inhibition of NPA peak currents, 100 µM substrate, 100 µM NPA, individual sensors
[15] = read-out: Rel. Inhibition of NPA peak currents, 250 µM substrate, 100 µM NPA, individual sensors
[16] = read-out: Rel. Inhibition of NPA peak currents, 500 µM substrate, 100 µM NPA, individual sensors
[17] = read-out: Rel. Inhibition of NPA peak currents, 1000 µM substrate, 100 µM NPA, individual sensors

O=C(O)COc1ccccc1Cl [2-CPA, 2-chlorophenoxyacetic acid]
Imax [1]: 3 ± 0.1 nA and 2.6 ± 0.1 nA | EC50 ([1]; No transport = model could not be fit, read-out: EC50 of peak current response): 263 µM | binding affinity to PIN8 in words [2]: high affinity, comparable to that of IAA and 2,4-D | inhibition at 20 µM [2, 5]: 19.9% | inhibition at 50 µM [2, 6]: 33.3% | inhibition at 100 µM [2, 7]: 57% | inhibition at 500 µM [2, 8]: 94.3% | inhibition at 1000 µM [2, 9]: 99.8% | Kd [2, 10]: 106 µM and 112 µM and 101 µM | Rel. FWHM (% of LPR10) ([3]; LPR10): 0.9412 % of LPR10 and 1.059 % of LPR10 and 1 % of LPR10 | Rel. FWHM (% of LPR10) ([3]; LPR50): 1.824 % of LPR10 (2×) and 1.235 % of LPR10 and 1.647 % of LPR10

Cc1ccc(OCC(=O)O)c(C)c1 [2,4-DMPA, 2-(2,4-dimethylphenoxy)acetic acid]
inhibition at 20 µM [2, 5]: 9.25% | inhibition at 50 µM [2, 6]: 21.8% | inhibition at 100 µM [2, 7]: 37% | inhibition at 250 µM [2, 11]: 61.3% | inhibition at 500 µM [2, 8]: 78.8% | inhibition at 1000 µM [2, 9]: 92.8% | Kd ([2]; inhibition of peak current elicited by 100 µM NPA, read-out: KD of substrate binding by PIN8): 174 ± 33 µM | Kd [2, 10]: 205 µM and 139 µM and 178 µM

Cc1ccc(OCC(=O)O)cc1 [4-MPA, 4-methylphenoxyacetic acid]
inhibition at 100 µM [2, 7]: 12.1% | inhibition at 250 µM [2, 11]: 25.7% | inhibition at 500 µM [2, 8]: 40.8% | inhibition at 1000 µM [2, 9]: 58.3% | inhibition at 2000 µM ([2]; 2000 µM substrate, 100 µM NPA, individual sensors, read-out: Rel. Inhibition of NPA peak currents): 72.8% | Kd [2, 10]: 710 µM and 614 µM and 521 µM

Cc1cc(Cl)ccc1OCC(=O)O [MCPA, 2-methyl-4-chlorophenoxyacetic acid]
binding affinity to PIN8 in words [2]: intermediate affinity | Kd [2, 12]: 149 µM and 159 µM and 103 µM | inhibition at 50 µM [2, 13]: 25.1% | inhibition at 100 µM [2, 14]: 41.7% | inhibition at 250 µM [2, 15]: 65.4% | inhibition at 500 µM [2, 16]: 78.3% | inhibition at 1000 µM [2, 17]: 88.6%

Cc1ccccc1OCC(=O)O [2-MPA, 2-methylphenoxyacetic acid]
inhibition at 50 µM [2, 6]: 13% | inhibition at 100 µM [2, 7]: 27.5% | inhibition at 250 µM [2, 11]: 53.9% | inhibition at 500 µM [2, 8]: 74.7% | inhibition at 1000 µM [2, 9]: 82.9% | Kd [2, 10]: 284 µM and 209 µM and 256 µM

O=C(O)CCc1ccc(Cl)cc1Cl [2,4-DPP, 3-(2,4-dichlorophenyl)-propionic acid]
binding affinity to PIN8 in words [2]: higher affinity than 2,4-D | inhibition at 5 µM ([2]; 5 µM substrate, 100 µM NPA, individual sensors, read-out: Rel. Inhibition of NPA peak currents): 15.1% | inhibition at 20 µM [2, 5]: 37.2% | inhibition at 50 µM [2, 6]: 51.9% | inhibition at 100 µM [2, 7]: 63.6% | inhibition at 250 µM [2, 11]: 77.8% | inhibition at 500 µM [2, 8]: 77.9% | Kd [2, 10]: 18.1 µM and 22.4 µM and 23.3 µM

O=C(O)c1ccccc1C(=O)Nc1cccc2ccccc12 [NPA, 1-N-naphthylphthalamic acid]
effect on the PIN8 current response to 2,4-D [4]: inhibited | Rel. FWHM (% of LPR10) ([3]; LPR10): 0.9324 % of LPR10 and 1.054 % of LPR10 and 1.014 % of LPR10 | peak width of SSM-based current response as a function of lipid-to-protein ratio (LPR) ([3]; LPR10 versus LPR50): does not change with LPR | Rel. FWHM (% of LPR10) ([3]; LPR50): 0.6892 % of LPR10 and 0.7297 % of LPR10 and 0.7703 % of LPR10

O=C(O)COc1ccc(Cl)cc1Cl [2,4D]
Rel. FWHM (% of LPR10) ([3]; LPR10): 1.043 % of LPR10 (2×) and 0.913 % of LPR10 | Rel. FWHM (% of LPR10) ([3]; LPR50): 1.565 % of LPR10 and 1.304 % of LPR10 and 1.239 % of LPR10 and 1.63 % of LPR10

O=C(O)COc1ccccc1 [PA, phenoxyacetic acid]
Kd [2, 12]: 605 µM and 377 µM | inhibition at 250 µM [2, 15]: 30.3% | inhibition at 500 µM [2, 16]: 47.3% | inhibition at 1000 µM [2, 17]: 60.5% | Kd [2, 10]: 485 µM

O=C(O)COc1cc(Cl)c(Cl)cc1Cl [2,4,5-T, 2,4,5-trichlorophenoxyacetic acid]
binding affinity to PIN8 in words [2]: highest affinity | Kd [2, 12]: 9.28 µM | inhibition at 1 µM ([2]; read-out: Rel. Inhibition of NPA peak currents, 1 µM substrate, 100 µM NPA, individual sensors): 11.8% | inhibition at 5 µM ([2]; read-out: Rel. Inhibition of NPA peak currents, 5 µM substrate, 100 µM NPA, individual sensors): 35.9% | inhibition at 20 µM ([2]; read-out: Rel. Inhibition of NPA peak currents, 20 µM substrate, 100 µM NPA, individual sensors): 65.7% | inhibition at 50 µM [2, 13]: 78.2% | inhibition at 100 µM [2, 14]: 87.3% | inhibition at 250 µM [2, 15]: 91% | inhibition at 500 µM [2, 16]: 95.3% | inhibition at 1000 µM [2, 17]: 98.4% | Kd [2, 10]: 8.98 µM
